Test results published in ChEMBL document CHEMBL1201862, “PubChem BioAssay data set” (2004).
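Tested at 5 concentrations; 48 h exposure; 96-well plates; endpoints linearly interpolated, else capped at highest concentration. The concentration for 50% growth inhibition is given as GI50.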 Activity calls are given as the source filed them. Cut-off read from the data, not from the text of the source: active = GI50 up to about 1.1 µM and inactive = higher.

Key:
Test in all cases: NCI-60 cell line screen, 48 h
[1] = system: 786-0
[2] = system: ACHN
[3] = system: DMS-273
[4] = system: HCT-116
[5] = system: HL-60
[6] = system: HOP-62
[7] = system: K562
[8] = system: KM12
[9] = system: M14
[10] = system: MOLT-4
[11] = system: NCI-H226
[12] = system: OVCAR-5
[13] = system: OVCAR-8
[14] = system: SF-295
[15] = system: SF-539
[16] = system: TK-10
[17] = system: BT-549
[18] = system: MDA-MB-435
[19] = system: MDA-N
[20] = system: T47D

Measured: GI50

Nc1n/c(=N\c2ccccc2)ss1
inactive: [1] > 100 µM | [2] > 100 µM | [3] > 100 µM | [4] > 100 µM | [5] 19.9 µM | [6] > 100 µM | [7] 78 µM | [8] > 100 µM | [9] > 100 µM | [10] > 100 µM | [11] > 100 µM | [12] > 100 µM | [13] > 100 µM | [14] > 100 µM | [15] > 100 µM | [16] > 100 µM

NC(=S)N1N=C2c3ccccc3CC[C@@H]2[C@@H]1c1ccccc1
inactive: [1] 6.89 µM | [2] 7.94 µM | [3] 2.19 µM | [4] 5.48 µM | [5] 2.86 µM | [6] 5.43 µM | [7] 2 µM | [8] 4.27 µM | [9] 4.4 µM | [10] 4.05 µM | [11] 4.65 µM | [12] 24.3 µM | [13] 9.75 µM | [14] 3.13 µM | [15] 4.88 µM | [16] 16.8 µM

O=C1C2C=CC(n3[nH]c(=O)n(Cc4ccccc4)c3=O)CC2C(=O)N1c1ccc(Br)cc1 (configuration not stated)
inactive: [1] > 100 µM | [2] > 100 µM | [3] > 100 µM | [4] > 100 µM | [5] > 100 µM | [6] > 100 µM | [7] > 100 µM | [8] > 100 µM | [9] > 100 µM | [10] > 100 µM | [11] > 100 µM | [12] > 100 µM | [13] > 100 µM | [14] > 100 µM | [15] > 100 µM | [16] > 100 µM

O=c1[nH]c(=O)n(C2OC(CO)C(O)C2O)cc1OCC(F)(F)F (configuration not stated)
inactive: [1] > 100 µM | [2] > 100 µM | [3] > 100 µM | [4] > 100 µM | [5] > 100 µM | [6] > 100 µM | [7] > 100 µM | [8] > 100 µM | [9] > 100 µM | [10] > 100 µM | [11] > 100 µM | [12] > 100 µM | [13] > 100 µM | [14] > 100 µM | [15] > 100 µM | [16] > 100 µM

CC(C)OCN/C(N)=N\C#N
inactive: [1] 82.4 µM | [2] > 100 µM | [3] 49.2 µM | [4] > 100 µM | [5] > 100 µM | [6] > 100 µM | [7] > 100 µM | [8] > 100 µM | [9] > 100 µM | [10] > 100 µM | [11] > 100 µM | [12] > 100 µM | [13] > 100 µM | [14] > 100 µM | [15] > 100 µM | [16] > 100 µM

COC(=O)/C=C/c1c(CC=C(C)C)ncn1C
inactive: [1] 38.5 µM | [2] > 76.7 µM | [3] 8.38 µM | [4] 24.3 µM | [5] 4.21 µM | [6] 42 µM | [7] 4.63 µM | [8] 11 µM | [9] 16.4 µM | [10] 5.31 µM | [11] > 38.5 µM | [12] > 100 µM | [13] 40.2 µM | [14] 24.4 µM | [15] 17.8 µM | [16] 55.7 µM

CN(C)CCCN1CCc2c([nH]c3ccccc23)C1c1cccnc1 (configuration not stated)
inactive: [1] > 100 µM | [2] > 100 µM | [3] > 100 µM | [4] > 100 µM | [5] > 100 µM | [6] > 100 µM | [7] > 100 µM | [8] > 100 µM | [9] > 100 µM | [10] > 100 µM | [11] > 100 µM | [12] > 100 µM | [13] > 100 µM | [14] > 100 µM | [15] > 100 µM | [16] > 100 µM

C[C@]12CC[C@@H]3c4ccc(O)cc4CC[C@H]3[C@@H]1CC[C@@H]2OC(=O)CCC1CCCC1 [ESTRADIOL CYPIONATE]
inactive: [1] 16.3 µM | [2] 23.8 µM | [17] 17.7 µM | [3] 14.3 µM | [4] 17.3 µM | [5] 17.8 µM | [6] 18.8 µM | [7] 17.2 µM | [8] 26.8 µM | [9] 20.1 µM | [18] 10 µM | [19] 6.85 µM | [10] 17.8 µM | [11] 19.1 µM | [12] 26.2 µM | [13] 16.7 µM | [14] 16.7 µM | [15] 18.8 µM | [20] 14.2 µM | [16] 23.4 µM
